In US10689377B2 (Mirati Therapeutics, Inc., priority 2017, dated 2020):

What follows are molecules tested against KRas G12C (Homo sapiens, UniProt P01116, G12C) (assay: Cellular inhibition of KRas G12C measured by Phospho-ERK in NCI-H358 cells). Details: pERK(Thr202/Tyr204) normalized with GAPDH, NCI-H358 cells, 3 hours; read-out: IC50.
Format: cell-based
How it was run: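 Following 8-12 h attachment, NCI-H358 cells got serially diluted compound (0.5% DMSO) for 3 hours. Cells were then fixed, permeabilized with cold methanol, and stained for pERK(Thr202/Tyr204) and GAPDH. Ratios were converted to percent of DMSO control, with IC50 obtained by four-parameter regression.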

Sequence of KRas G12C (P01116 1-188 isoform P01116-2 G12C): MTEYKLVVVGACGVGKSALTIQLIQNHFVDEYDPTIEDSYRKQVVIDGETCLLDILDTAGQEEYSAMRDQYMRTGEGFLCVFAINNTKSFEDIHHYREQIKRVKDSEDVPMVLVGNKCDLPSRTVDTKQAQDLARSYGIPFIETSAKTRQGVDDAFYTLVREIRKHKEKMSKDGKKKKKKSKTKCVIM

| SMILES | IC50 [nM] |
| --- | --- |
| C=CC(=O)N1CCN(c2nc(OC[C@@H]3CCCN3C)nc3c2CCN(c2cccc4ccc(F)cc24)C3)C[C@@H]1CC#N [Example 333, 2-[(2S)-4-[7-(7-fluoro-1-naphthyl)-2-[[(2S)-1-methylpyrrolidin-2-yl]methoxy]-6,8-dihydro-5H-pyrido[3,4-d]pyrimidin-4-yl]-1-prop-2-enoyl-piperazin-2-yl]acetonitrile] | 0.1 to 1000 |
| C=CC(=O)N1CCN(c2nc(OC[C@H]3CCCN3CC)nc3c2CCN(c2cccc4ccccc24)C3)C[C@@H]1CC#N [Example 334, 2-[(2S)-4-[2-[[(2R)-1-ethylpyrrolidin-2-yl]methoxy]-7-(1-naphthyl)-6,8-dihydro-5H-pyrido[3,4-d]pyrimidin-4-yl]-1-prop-2-enoyl-piperazin-2-yl]acetonitrile] | 0.1 to 1000 |
| C=CC(=O)N1CCN(c2nc(OC[C@@H]3C[C@@H](OC)CN3CC)nc3c2CCN(c2cccc(Cl)c2C(F)(F)F)C3)C[C@@H]1CC#N [Example 335, 2-[(2S)-4-[7-[3-chloro-2-(trifluoromethyl)phenyl]-2-[[(2S,4R)-1-ethyl-4-methoxy-pyrrolidin-2-yl]methoxy]-6,8-dihydro-5H-pyrido[3,4-d]pyrimidin-4-yl]-1-prop-2-enoyl-piperazin-2-yl]acetonitrile] | 0.1 to 1000 |
| C=CC(=O)N1C[C@H](C)N(c2nc(OC[C@@H]3CCCN3C)nc3c2CCN(c2cc(O)cc4ccccc24)C3)C[C@H]1C [Example 336, 1-[(2R,5S)-4-[7-(3-hydroxy-1-naphthyl)-2-[[(2S)-1-methylpyrrolidin-2-yl]methoxy]-6,8-dihydro-5H-pyrido[3,4-d]pyrimidin-4-yl]-2,5-dimethyl-piperazin-1-yl]prop-2-en-1-one] | 0.1 to 1000 |
| C=CC(=O)N1CCN(c2nc(OC[C@@H]3CCCN3C)nc3c2CCN(c2cccc(Cl)c2CC)C3)C[C@@H]1CC#N [Example 337, 2-[(2S)-4-[7-(3-chloro-2-ethyl-phenyl)-2-[[(2S)-1-methylpyrrolidin-2-yl]methoxy]-6,8-dihydro-5H-pyrido[3,4-d]pyrimidin-4-yl]-1-prop-2-enoyl-piperazin-2-yl]acetonitrile] | 0.1 to 1000 |
| C=CC(=O)N1CCN(c2nc(OC[C@@H]3CCCN3C)nc3c2CCN(c2cccc4cccc(F)c24)C3)C[C@@H]1CC#N [Example 338] | 0.1 to 1000 |
| C=CC(=O)N1CCN(c2nc(OC[C@@H]3CCCN3CC)nc3c2CCN(c2cccc(Cl)c2C(F)(F)F)C3)C[C@@H]1CC#N [Example 339, 2-((S)-1-acryloyl-4-(7-(3-chloro-2-(trifluoromethyl)phenyl)-2-(((S)-1-ethylpyrrolidin-2-yl)methoxy)-5,6,7,8-tetrahydropyrido[3,4-d]pyrimidin-4-yl)piperazin-2-yl)acetonitrile] | 0.1 to 1000 |
| C=CC(=O)N1CCN(c2nc(OC[C@@H]3CCCN3C)nc3c2CCN(c2cnccc2OC)C3)C[C@@H]1CC#N [Example 340, 2-((S)-1-acryloyl-4-(7-(4-methoxypyridin-3-yl)-2-(((S)-1-methylpyrrolidin-2-yl)methoxy)-5,6,7,8-tetrahydropyrido[3,4-d]pyrimidin-4-yl)piperazin-2-yl)acetonitrile] | > 1000 |
| C=CC(=O)N1CCN(c2nc(OC[C@@H]3CCCN3CCO)nc3c2CCN(c2cccc4ccccc24)C3)C[C@@H]1CC#N [Example 341, 2-((S)-1-acryloyl-4-(2-(((S)-1-(2-hydroxyethyl)pyrrolidin-2-yl)methoxy)-7-(naphthalen-1-yl)-5,6,7,8-tetrahydropyrido[3,4-d]pyrimidin-4-yl)piperazin-2-yl)acetonitrile] | 0.1 to 1000 |
| CN(C)C/C=C/C(=O)N1CCN(c2nc(OC[C@@H]3C[C@@H](O)CN3C)nc3c2CCN(c2cccc(F)c2C(F)(F)F)C3)C[C@@H]1CC#N [Example 342, 2-[(2S)-1-[(E)-4-(dimethylamino)but-2-enoyl]-4-[7-[3-fluoro-2-(trifluoromethyl)phenyl]-2-[[(2S,4R)-4-hydroxy-1-methyl-pyrrolidin-2-yl]methoxy]-6,8-dihydro-5H-pyrido[3,4-d]pyrimidin-4-yl]piperazin-2-yl]acetonitrile] | 0.1 to 1000 |
